Laboratory results: patent US4051253A, “Microbicidal nitrofuryl compounds” (Byk Gulden Lomberg Chemische Fabrik GmbH, priority 1974, dated 1977)
Like-named read-outs stand apart in the source and are kept apart here.

Key:
C. Paracrusei 45 = experiment: microbe, parasite or virus in culture; format: cell-based; conditions: for MBC: read-out: Concentration from which subcultures no longer started; for MIC: read-out: Minimum inhibiting concentration (MHK), series dilution test
streptoc. group B 779 = experiment: microbe, parasite or virus in culture; format: cell-based; conditions: for MBC: read-out: Concentration from which subcultures no longer started; for MIC: read-out: Minimum inhibiting concentration (MHK), series dilution test
streptococci group C 805 = experiment: microbe, parasite or virus in culture; format: cell-based; conditions: for MBC: read-out: Concentration from which subcultures no longer started; for MIC: read-out: Minimum inhibiting concentration (MHK), series dilution test
enterococci = experiment: microbe, parasite or virus in culture; format: cell-based; conditions: for MIC: read-out: Minimum inhibiting concentration (MHK), series dilution test
[1] = tested on: Serratia marcescens strain HY/a 21
streptococci group A 807 = experiment: microbe, parasite or virus in culture; format: cell-based; conditions: for MIC: read-out: Minimum inhibiting concentration (MHK), series dilution test
C. Albicans 49 = experiment: microbe, parasite or virus in culture; format: cell-based; conditions: Candida albicans; for MIC: read-out: Minimum inhibiting concentration (MHK), series dilution test
[2] = tested on: 9 bacteria and 2 yeast strains; experiment: In vitro tests with 9 bacteria and 2 yeast strains (summary); format: cell-based; conditions: even with the high concentration of 500 μg/ml
E. coli 6106 = experiment: microbe, parasite or virus in culture; format: cell-based; conditions: for MIC: read-out: Minimum inhibiting concentration (MHK), series dilution test
Staph. aur. SG 511 = experiment: microbe, parasite or virus in culture; format: cell-based; conditions: for MIC: read-out: Minimum inhibiting concentration (MHK), series dilution test
S. typhimurium G 46 = conditions: in vivo
in vivo = conditions: mouse
Trichomonas foetus = experiment: Infection tests with Trichomonas foetus in mice; format: in vivo; conditions: for % of Animals Dying After Infection (Mean Value): stomach tube, 3 successive days, NMRI mice
Staph. aur. PCI 1203 = experiment: microbe, parasite or virus in culture; format: cell-based; conditions: for MBC: read-out: Concentration from which subcultures no longer started; for MIC: read-out: Minimum inhibiting concentration (MHK), series dilution test
Ps. aeruginosa 2 = experiment: microbe, parasite or virus in culture; format: cell-based; conditions: for MIC: read-out: Minimum inhibiting concentration (MHK), series dilution test
Klebs. pneum. PCI 602 = experiment: microbe, parasite or virus in culture; format: cell-based; conditions: for MBC: read-out: Concentration from which subcultures no longer started; for MIC: read-out: Minimum inhibiting concentration (MHK), series dilution test
[3] = subcultures applied after 48 h, read after 24 h
[4] = 24 h, read-out: Concentration from which subcultures no longer started, subcultures applied after 24 h, read after 24 h
[5] = 48 h, read-out: Concentration from which subcultures no longer started, subcultures applied after 48 h, read after 48 h
[6] = read-out: Concentration from which subcultures no longer started, subcultures applied after 24 h, read after 48 h
[7] = read-out: Concentration from which subcultures no longer started, subcultures applied after 48 h, read after 24 h

Structure (SMILES): Cc1ncc([N+](=O)[O-])n1CCO [Metronidazol, reference compound]
- MBC (C. Paracrusei 45; 24 h): > 500 µg/mL
- MIC (C. Paracrusei 45; 24 h): > 500 µg/mL
- MBC (C. Paracrusei 45; 48 h): > 500 µg/mL
- MIC (C. Paracrusei 45; 48 h): > 500 µg/mL
- MBC (C. Paracrusei 45): > 500 µg/mL
- Concentration from which subcultures no longer started (C. Paracrusei 45; [3]): > 500 µg/mL
- MBC (streptoc. group B 779; 24 h): > 500 µg/mL
- MIC (streptoc. group B 779; 24 h): > 500 µg/mL
- MBC (streptoc. group B 779; 48 h): > 500 µg/mL
- MIC (streptoc. group B 779; 48 h): > 500 µg/mL
- MBC (streptoc. group B 779): > 500 µg/mL
- Concentration from which subcultures no longer started (streptoc. group B 779; [3]): > 500 µg/mL
- MBC (streptococci group C 805; 24 h): > 500 µg/mL
- MIC (streptococci group C 805; 24 h): > 500 µg/mL
- MBC (streptococci group C 805; 48 h): > 500 µg/mL
- MIC (streptococci group C 805; 48 h): > 500 µg/mL
- MBC (streptococci group C 805): > 500 µg/mL
- Concentration from which subcultures no longer started (streptococci group C 805; [3]): > 500 µg/mL
- MBC (enterococci; [4]): > 500 µg/mL
- MIC (enterococci; 24 h): > 500 µg/mL
- MBC (enterococci; [5]): > 500 µg/mL
- MIC (enterococci; 48 h): > 500 µg/mL
- MBC (enterococci; [6]): > 500 µg/mL
- MBC (enterococci; [7]): > 500 µg/mL
- Mutants, Test [1]: 5.9 × 10^2 colonies/ml
- Mutation frequency [1]: 3.1 × 10^-6
- MBC (streptococci group A 807; [4]): > 500 µg/mL
- MIC (streptococci group A 807; 24 h): > 500 µg/mL
- MBC (streptococci group A 807; [5]): > 500 µg/mL
- MIC (streptococci group A 807; 48 h): > 500 µg/mL
- MBC (streptococci group A 807; [6]): > 500 µg/mL
- MBC (streptococci group A 807; [7]): > 500 µg/mL
- MBC (C. Albicans 49; [4]): > 500 µg/mL
- MIC (C. Albicans 49; 24 h): > 500 µg/mL
- MBC (C. Albicans 49; [5]): > 500 µg/mL
- MIC (C. Albicans 49; 48 h): > 500 µg/mL
- MBC (C. Albicans 49; [6]): > 500 µg/mL
- MBC (C. Albicans 49; [7]): > 500 µg/mL
- in vitro antibacterial/antiyeast effect (in words) [2]: ineffective
- MBC (E. coli 6106; Escherichia coli, 6106, 24 h, read-out: Concentration from which subcultures no longer started): > 500 µg/mL
- MIC (E. coli 6106; Escherichia coli, 6106, 24 h): > 500 µg/mL
- MBC (E. coli 6106; Escherichia coli, 6106, 48 h, read-out: Concentration from which subcultures no longer started): > 500 µg/mL
- MIC (E. coli 6106; Escherichia coli, 6106, 48 h): > 500 µg/mL
- MBC (E. coli 6106; Escherichia coli, 6106, read-out: Concentration from which subcultures no longer started): > 500 µg/mL
- Concentration from which subcultures no longer started (E. coli 6106; [3]): > 500 µg/mL
- MBC (Staph. aur. SG 511; [4]): > 500 µg/mL
- MIC (Staph. aur. SG 511; 24 h): > 500 µg/mL
- MBC (Staph. aur. SG 511; [5]): > 500 µg/mL
- MIC (Staph. aur. SG 511; 48 h): > 500 µg/mL
- MBC (Staph. aur. SG 511; [6]): > 500 µg/mL
- MBC (Staph. aur. SG 511; [7]): > 500 µg/mL
- Mutation frequency in test animals (S. typhimurium G 46): 4.6 . 10^-7
- LD50 (in vivo): > 2000 mg/kg
- % of Animals Dying After Infection (Mean Value) (Trichomonas foetus; 6.25 mg/kg): 90%
- % of Animals Dying After Infection (Mean Value) (Trichomonas foetus; 12.5 mg/kg): 80%
- % of Animals Dying After Infection (Mean Value) (Trichomonas foetus; 25 mg/kg): 70%
- % of Animals Dying After Infection (Mean Value) (Trichomonas foetus; 50 mg/kg): 15%
- % of Animals Dying After Infection (Mean Value) (Trichomonas foetus; 75 mg/kg): 0%
- % of Animals Dying After Infection (Mean Value) (Trichomonas foetus; 100 mg/kg): 4%
- animals survived / survival rate (Trichomonas foetus; dose of 6.25 mg/kg, mice infected with T. foetus): 10%
- MBC (Staph. aur. PCI 1203; 24 h): > 500 µg/mL
- MIC (Staph. aur. PCI 1203; 24 h): > 500 µg/mL
- MBC (Staph. aur. PCI 1203; 48 h): > 500 µg/mL
- MIC (Staph. aur. PCI 1203; 48 h): > 500 µg/mL
- MBC (Staph. aur. PCI 1203): > 500 µg/mL
- Concentration from which subcultures no longer started (Staph. aur. PCI 1203; [3]): > 500 µg/mL
- MBC (Ps. aeruginosa 2; Pseudomonas aeruginosa, 2, 24 h, read-out: Concentration from which subcultures no longer started): > 500 µg/mL
- MIC (Ps. aeruginosa 2; Pseudomonas aeruginosa, 2, 24 h): > 500 µg/mL
- MBC (Ps. aeruginosa 2; Pseudomonas aeruginosa, 2, 48 h, read-out: Concentration from which subcultures no longer started): > 500 µg/mL
- MIC (Ps. aeruginosa 2; Pseudomonas aeruginosa, 2, 48 h): > 500 µg/mL
- MBC (Ps. aeruginosa 2; Pseudomonas aeruginosa, 2, read-out: Concentration from which subcultures no longer started): > 500 µg/mL
- Concentration from which subcultures no longer started (Ps. aeruginosa 2; [3]): > 500 µg/mL
- MBC (Klebs. pneum. PCI 602; 24 h): > 500 µg/mL
- MIC (Klebs. pneum. PCI 602; 24 h): > 500 µg/mL
- MBC (Klebs. pneum. PCI 602; 48 h): > 500 µg/mL
- MIC (Klebs. pneum. PCI 602; 48 h): > 500 µg/mL
- MBC (Klebs. pneum. PCI 602): > 500 µg/mL
- Concentration from which subcultures no longer started (Klebs. pneum. PCI 602; [3]): > 500 µg/mL
